From US8163795B2, “Chroman derivatives, medicaments and use in therapy” (Marshall Edwards, Inc., priority 2004, dated 2012)
Like-named read-outs stand apart in the source and are kept apart here.

Assays:
[1] = tested on: Neonatal foreskin fibroblasts (NFF); experiment: Proliferation assay (MTT), normal cell toxicity; format: cell-based, Human; details: read-out: IC50
Experimental: (§1) The normal cell line NFF (neonatal foreskin fibroblasts) was a sift from Dr. Peter Parsons (Queensland Institute of Medical Research). RK (rabbit kidney) cells were obtained from Miller Whalley (Macquarie University). Both cell lines were cultured in RPMI supplemented with 10% FCS(CSL, Australia), penicillin (100 U/ml), streptomycin ([…]), L-glutamine (2 mM) and sodium bicarbonate (1.2 g/L), and cultured at 37° C. in a humidified atmosphere of 5% CO2.
(§2) IC50 values were determined for each cell line. Cells were seeded in 96-well plates at an appropriate cell density as determined from growth kinetics analysis and cultured for 5 days in the absence and presence of the test compounds. Cell proliferation was assessed after the addition of 20 μl of 3-4,5 dimethylthiazol-2,5-diphenyl tetrazolium bromide (MTT, 2.5 mg/ml in PBS, Sigma) for 3-4 hrs at 37° C. according to manufacturer's instructions. IC50 values were calculated from semi-log plots of % of control proliferation on the y-axis against log dose on the x-axis.

[2] = tested on: CP70 ovarian cancer cell line; experiment: Proliferation assay (MTT); format: cell-based
[3] = tested on: SKOV-3 ovarian cancer cell line; experiment: Proliferation assay (MTT); format: cell-based
A2780 (Ovarian) = experiment: Proliferation assay (MTT); format: cell-based; details: Table 2.1
Experimental: (§3) All cultures were supplemented with 10% FCS (fetal calf serum CSL, Australia), penicillin (100 U/ml), streptomycin ([…]), L-glutamine (2 mM) and sodium bicarbonate (1.2 g/L), and cultured at 37° C. in a humidified atmosphere of 5% CO2. All cell lines were purchased from ATCC (Maryland, USA) except where noted.
as §2

DU145 (Prostate) = experiment: Proliferation assay (MTT); format: cell-based
Experimental: as §3, §2

HCT-15 (Colorectal) = experiment: Proliferation assay (MTT); format: cell-based; details: Table 2.1, Colorectal HCT-15
Experimental: as §3, §2

HT-29 (Colorectal) = experiment: Proliferation assay (MTT); format: cell-based; details: Table 2.1, Colorectal HT-29
Experimental: as §3, §2

HTB-138 (Glioma) = experiment: Proliferation assay (MTT); format: cell-based; details: Table 2.1; Glioma HTB-138
Experimental: as §3, §2

LNCaP (Prostate) = experiment: Proliferation assay (MTT); format: cell-based; details: Table 2.1
Experimental: as §3, §2

[4] = tested on: MCF-7 breast cancer cell line; experiment: Proliferation assay (MTT); format: cell-based; details: Table 2.1, Breast MCF-7
Experimental: as §3, §2

NCI-H460 (Lung) = experiment: Proliferation assay (MTT); format: cell-based; details: Table 2.1, Lung NCI-H460
Experimental: as §3, §2

[5] = tested on: PC3 prostate cancer cell line; experiment: Proliferation assay (MTT); format: cell-based; details: Table 2.1
Experimental: as §3, §2

[6] = tested on: MDA-MB-468 breast cancer cell line; experiment: Proliferation assay (MTT); format: cell-based
[7] = tested on: HPAC (CRL-2119) pancreatic cancer cell line; experiment: Proliferation assay (MTT); format: cell-based, human
MM200 melanoma cell line [8] = experiment: Proliferation assay (MTT); format: cell-based
A2058 melanoma cell line = experiment: Proliferation assay (MTT); format: cell-based; details: Table 2.1; Melanoma A2058
MM200 melanoma cell line [9] = experiment: HMC combination with cisplatin (synergy); format: cell-based; details: Table 8, single agent
Experimental: as §2
3-D model analysis of the cytotoxic interaction between drug A and drug B enables the representation of predicted inhibitory effect of two drugs in combination in 3 dimensions to reveal actual regions of synergy or antagonism. The 3D synergy plots are based on a theory of “Theretical Additivity” (TA) as outlined by Kanzawa et al (Int. J. Cancer 71, 311-319 (1997)). Theoretical Additivity was calculated from the cytotoxicities of drug A and drug B as monotherapies using the following formula which assumes the drugs are mutually exclusive inhibitors: […]
The TA is calculated for each combination of drug concentrations and subtracted from the observed experimental effect for each combination to give a measurement of synergisitic action.
HMC synergy with cisplatin was assessed either in combination over 5 days exposure or in sequence (HMC→cisplatin) against the MM200 melanoma cell line. It was difficult to assess for synergisitic toxicity using a change in IC50 as a measure of synergy due to HMC toxicity as monotherapy (Table 8). […] Evidence of synergy using the HMC-cisplatin combination was further assessed using the HMC→cisplatin sequence (24 hr exposure to each compound in sequence) against the melanoma cell line MM200. Using change in IC50 to assess for synergy it was noted that HMC at concentrations of 2 μM markedly chemosensitised the MM200 cells to cisplatin by >1000 fold (Table 8). HMC induced chemosensitisation of MM200 cells to cisplatin was confirmed using 3D analysis of the data (FIG. 11B).

rabbit kidney cells (RK) = experiment: Proliferation assay (MTT), normal cell toxicity; format: cell-based; details: read-out: IC50
Experimental: as §1, §2

CCRF-CEM (Leukemic) = experiment: Proliferation assay (MTT); format: cell-based; details: Homo sapiens; Table 2.1; Leukemic CCRF-CEM
Experimental: as §3, §2

MM96L melanoma cell line = experiment: Proliferation assay (MTT); format: cell-based; details: Homo sapiens, Table 15
Experimental: as §3, §2

NCI-H23 (Lung) = experiment: Proliferation assay (MTT); format: cell-based; details: Homo sapiens, Table 2.1
Experimental: as §3, §2

RPMI-8226 (Leukemic) = experiment: Proliferation assay (MTT); format: cell-based; details: Homo sapiens; Table 2.1; Leukemic RPMI-8226
Experimental: as §3, §2

[10] = tested on: SKMe128 melanoma cell line; experiment: Proliferation assay (MTT); format: cell-based; details: Table 15
Experimental: as §3, §2

[11] = DHE and HMC pharmacokinetics, oral, mice; format: in vivo, female BALB/c mice; details: for Free plasma concentration: 50 mg/kg p.o.
Experimental: HMC and DHE were prepared as homogenous suspensions in 1% CMC (m:v, water). Both formulations were delivered orally by gavage to female BALB/c mice at a dosage of 50 mg/kg. Three animals were allocated to each timepoint (15 min, 30 min, 1 hr, 4 hr and 24 hr). At each respective timepoint, animals were euthanased by cervical dislocation and blood collected. Free HMC was analysed by mass spectroscopy.

[12] = tested on: MEL-RM melanoma cells (TRAIL sensitive); experiment: Apoptosis incidence in melanoma cells; format: cell-based
[13] = tested on: ME4405 melanoma cells (TRAIL sensitive); experiment: Apoptosis incidence in melanoma cells; format: cell-based
[14] = tested on: IGR3 melanoma cells (Trail-resistant); experiment: Apoptosis incidence in melanoma cells; format: cell-based
[15] = tested on: Mel-AT melanoma cells (Trail +ve/Caspase 8 −ve); experiment: Apoptosis incidence in melanoma cells; format: cell-based
[16] = tested on: TRAIL-sensitive and -resistant melanoma cells; experiment: Apoptosis incidence, statements over several melanoma cell lines; format: cell-based; details: 4 μM, 24 hr exposure, DHE-treated cells
[17] = tested on: normal fibroblasts (MRC-5); experiment: Apoptosis in normal fibroblasts; format: cell-based; details: same concentration (8 μM) and exposure times (24 and 48 hr) as melanoma cells
Experimental: Studies were conducted on normal fibroblasts (MRC-5) and TRAIL-sensitive melanoma cells (ME4405 and MEL-RM) using 8 μM of either DHE, or HMC over 24 and 48 hr of exposure (FIG. 9).

[18] = Table 1, Neonatal Foreskin Fibroblasts (Human, NFF)

## N.N.[Cl][Pt][Cl] [Cisplatin, cisplatin, reference compound]
[1]; [18]
  IC50: 9.85 ± 5 µM
[2]; Table 2.1, Ovarian CP70, read-out: IC50
  IC50: 10.3 µM
[3]; Table 2.1, Ovarian SKOV-3, read-out: IC50
  IC50: 5.4 µM
A2780 (Ovarian)
  IC50: 2.1 µM
DU145 (Prostate); Table 2.1
  IC50: 2.07 µM
HCT-15 (Colorectal)
  IC50: 130 ± 39 µM
HT-29 (Colorectal)
  IC50: 22.7 ± 35 µM
HTB-138 (Glioma)
  IC50: 42.3 µM
LNCaP (Prostate)
  IC50: > 10 µM
[4]
  IC50: 3.69 µM
NCI-H460 (Lung)
  IC50: 22.3 µM
[5]
  IC50: 2.11 µM
[6]; Table 2.1, Breast MDA-MB-468, read-out: IC50
  IC50: 0.58 µM
[7]; Table 2.1, Pancreatic CRL-2119, read-out: IC50
  IC50: 9.36 µM
MM200 melanoma cell line [8]; Table 2.1, Melanoma MM200, read-out: IC50
  IC50: 8.3 ± 0.7 µM
A2058 melanoma cell line
  IC50: 5.73 ± 2.3 µM
MM200 melanoma cell line [9]; 24 hr exposure, read-out: IC50, 24 hr (monotherapy)
  IC50: 6.32 µM
MM200 melanoma cell line [9]; 5 days exposure, read-out: IC50, Combined (monotherapy)
  IC50: 8.82 µM

## Oc1ccc(C2=Cc3ccc(O)cc3OC2)cc1 [DHE, dehydroequol, reference compound]
[1]; Homo sapiens, Fibroblast, NFF
  IC50: > 150 µM
[1]; [18]
  IC50: > 150 µM
Rabbit kidney cells (RK); Oryctolagus cuniculus, rabbit kidney cells
  IC50: > 150 µM
Rabbit kidney cells (RK); Table 1, Rabbit Kidney
  IC50: > 150 µM
[2]
  IC50: 1.69 ± 0.62 µM
[3]; Homo sapiens, SK-OV-3
  IC50: 21.8 ± 4.65 µM
A2780 (Ovarian); Homo sapiens
  IC50: 1.7 ± 0.61 µM
CCRF-CEM (Leukemic)
  IC50: 1.7 ± 0.68 µM
DU145 (Prostate); Homo sapiens, DU-145, Table 2.1
  IC50: 5.95 ± 1.5 µM
HCT-15 (Colorectal); Homo sapiens
  IC50: 24.4 ± 12.6 µM
HT-29 (Colorectal); Homo sapiens
  IC50: 50.5 ± 21.9 µM
HTB-138 (Glioma)
  IC50: 7.35 ± 0.89 µM
LNCaP (Prostate); Homo sapiens
  IC50: 4.8 ± 3.8 µM
[4]; Homo sapiens, MCF7
  IC50: 21.5 ± 13.2 µM
MM96L melanoma cell line
  IC50: 4.76 µM
NCI-H23 (Lung)
  IC50: 8.75 ± 7.2 µM
NCI-H460 (Lung); Homo sapiens
  IC50: 10.6 ± 3.8 µM
[5]
  IC50: 9.09 ± 8.12 µM
RPMI-8226 (Leukemic)
  IC50: 3.72 ± 0.08 µM
[10]
  IC50: 4.4 µM
[6]; Homo sapiens, MDA-MB-468
  IC50: 7.9 ± 3.5 µM
[7]; Homo sapiens, HPAC
  IC50: 56.6 ± 16.8 µM
MM200 melanoma cell line [8]; Table 2.1, Melanoma MM200
  IC50: 2.9 µM
MM200 melanoma cell line [8]; Table 15, melanoma MM200, monotherapy
  IC50: 4.77 ± 4 µM
[11]; Time 0.25
  Free plasma concentration: 3300 ± 130 nM
[11]; Time 0.5
  Free plasma concentration: 2900 ± 50 nM
[11]; Time 1
  Free plasma concentration: 1500 ± 110 nM
[11]; Time 4
  Free plasma concentration: 1300 ± 70 nM
[11]; Time 24
  Free plasma concentration: 150 ± 40 nM
[11]; oral 50 mg/kg
  maximum plasma concentration of the free form: 3.3 µM
  ratio of free:total: 0.64
  time of maximum free concentration: 15 min
[12]; 24 hr exposure, 1 uM
  Percent Apoptosis: 0%
[12]; 24 hr exposure, 2 uM
  Percent Apoptosis: 0%
[12]; 24 hr exposure, 4 uM
  Percent Apoptosis: 0%
[12]; 24 hr exposure, 8 uM
  Percent Apoptosis: 2%
[12]; 24 hr exposure, 20 uM
  Percent Apoptosis: 5%
[12]; 48 hr exposure, 1 uM
  Percent Apoptosis: 1%
[12]; 48 hr exposure, 2 uM
  Percent Apoptosis: 1.5%
[12]; 48 hr exposure, 4 uM
  Percent Apoptosis: 3%
[12]; 48 hr exposure, 8 uM
  Percent Apoptosis: 10%
[12]; 48 hr exposure, 20 uM
  Percent Apoptosis: 12%
[13]; 24 hr exposure, 1 uM
  Percent Apoptosis: 0%
[13]; 24 hr exposure, 2 uM
  Percent Apoptosis: 2%
[13]; 24 hr exposure, 4 uM
  Percent Apoptosis: 2%
[13]; 24 hr exposure, 8 uM
  Percent Apoptosis: 6%
[13]; 24 hr exposure, 20 uM
  Percent Apoptosis: 11%
[13]; 48 hr exposure, 1 uM
  Percent Apoptosis: 1%
[13]; 48 hr exposure, 2 uM
  Percent Apoptosis: 3%
[13]; 48 hr exposure, 4 uM
  Percent Apoptosis: 14%
[13]; 48 hr exposure, 8 uM
  Percent Apoptosis: 40%
[13]; 48 hr exposure, 20 uM
  Percent Apoptosis: 35%
[14]; 24 hr exposure, 1 uM
  Percent Apoptosis: 0%
[14]; 24 hr exposure, 2 uM
  Percent Apoptosis: 0%
[14]; 24 hr exposure, 4 uM
  Percent Apoptosis: 1%
[14]; 24 hr exposure, 8 uM
  Percent Apoptosis: 3%
[14]; 24 hr exposure, 20 uM
  Percent Apoptosis: 4%
[14]; 48 hr exposure, 1 uM
  Percent Apoptosis: 1%
[14]; 48 hr exposure, 2 uM
  Percent Apoptosis: 1%
[14]; 48 hr exposure, 4 uM
  Percent Apoptosis: 2%
[14]; 48 hr exposure, 8 uM
  Percent Apoptosis: 8%
[14]; 48 hr exposure, 20 uM
  Percent Apoptosis: 8%
[15]; 24 hr exposure, 1 uM
  Percent Apoptosis: 0%
[15]; 24 hr exposure, 2 uM
  Percent Apoptosis: 3%
[15]; 24 hr exposure, 4 uM
  Percent Apoptosis: 4%
[15]; 24 hr exposure, 8 uM
  Percent Apoptosis: 8%
[15]; 24 hr exposure, 20 uM
  Percent Apoptosis: 10%
[15]; 48 hr exposure, 1 uM
  Percent Apoptosis: 1.5%
[15]; 48 hr exposure, 2 uM
  Percent Apoptosis: 5%
[15]; 48 hr exposure, 4 uM
  Percent Apoptosis: 15%
[15]; 48 hr exposure, 8 uM
  Percent Apoptosis: 43%
[15]; 48 hr exposure, 20 uM
  Percent Apoptosis: 40%
[16]
  incidence of apoptosis: 0-1%
[17]
  induction of apoptosis in normal fibroblasts: do not induce apoptosis
